Reference: patent US4172829A, “2,9-Disubstituted adenine derivatives and their use as non-adrenergic bronchodilators” (Bristol-Myers Company, priority 1978, dated 1979)
Converted amounts (≈) assume the structure as drawn.

Columns and labels:
[1] = tested on: intratracheal pressure (ITP) of guinea pig; assay: In vivo bronchodilator activity, intratracheal pressure test (ITP); conditions: Cavia porcellus, 50% decrease in intratracheal pressure
Procedure: (§1) The trachea of anesthetized guinea pig was cannulated and the ITP recorded on a polygraph under artificial ventilation. Arterial blood pressure (ABP; measure of hypotensive activity) was also measured during the experiment. Data was obtained for both intravenous and intraduodenal administration.

[2] = tested on: Tracheal chains of guinea pig; assay: In vitro bronchodilator activity, isolated tracheal chain (ITC); format: cell-based; conditions: Cavia porcellus, relaxation 50% of the maximum response to 0.1 mcg./ml. of isoproterenol
Procedure: Tracheal chains of guinea pig were prepared by the method described by A. Akcasu in Arch. Int. Pharmacodyn. Ther., 122, 201 (1959). The response to each test compound was recorded by the Magnus method and expressed as a percentage of the maximum response obtained with 0.1 mcg./ml. of isoproterenol prior to each experiment.

[3] = Separation of bronchodilator and cardiovascular effects (ABP/ITP); conditions: guinea pig, in vivo, ratio of hypotensive ED20 / bronchodilating ED50
Procedure: To assess the separation of desirable bronchodilator activity from undesirable cardiovascular (hypotensive) effect in the test compounds, the ratio of hypotensive ED20 /bronchodilating ED50 was calculated and indicated in Table 1.

[4] = tested on: Arterial blood pressure (ABP); assay: In vivo hypotensive activity, arterial blood pressure (ABP); parameters: species or system guinea pig; conditions: arterial blood pressure lowering, ED20, reduces ABP by 20%
Procedure: as §1, with “Pharmac., 21, 379 (1969). The” for “The”

bronchial constriction = conditions: prior art; bronchial asthma; cited from earlier work
[5] = known disadvantages, prior art; cited from earlier work
[6] = prior art; cited from earlier work
platelet aggregation = conditions: Chem Pharm. Bull., 25(7), 1811-1821 (1977); cited from earlier work

| SMILES | ED50 ([1]; intravenous) | EC50 [2] | selectivity ratio ([3]; intravenous) | ED20 ([4]; intravenous) | bronchodilator activity (in words) (bronchial constriction) | side effects (in words) [5] | solubility (in words) [6] | ED50 ([1]; intraduodenal) | selectivity ratio ([3]; intraduodenal) | ED20 ([4]; intraduodenal) | inhibition of platelet aggregation (in words) (platelet aggregation) |
| --- | --- | --- | --- | --- | --- | --- | --- | --- | --- | --- | --- |
| CCOc1nc(N)c2ncn(C3CCCCC3)c2n1 [C2 H5 O / drawing 30, 2-Ethoxy-9-cyclohexyl-9H-adenine] | 0.37 mg/kg | 0.18 µg/mL (≈ 0.689 µM) | 6.8 | 2.5 mg/kg |  |  |  |  |  |  |  |
| Cn1c(=O)c2[nH]cnc2n(C)c1=O [aminophylline] |  | 16.6 µg/mL (≈ 92.1 µM) |  |  | effective bronchodilator when given orally | gastric irritation and cardiovascular and central nervous system side effects | readily soluble |  |  |  |  |
| CCOc1nc(N)c2ncn(C3C=CCCC3)c2n1 (stereo not shown) [C2 H5 O / drawing 31, 9-(2-Cyclohexenyl)-2-ethoxy-9H-adenine] | 0.33 mg/kg | 0.088 µg/mL (≈ 0.339 µM) | 12 | 4.0 mg/kg |  |  |  | 0.62 mg/kg | 19 | 12 mg/kg |  |
| Nc1nc(SC2CCCC2)nc2c1ncn2C1CCCC1 |  |  |  |  |  |  |  |  |  |  | slightly effective |
| CCCOc1nc(N)c2ncn(C3C=CCCC3)c2n1 (stereo not shown) [n-C3 H7 O / drawing 31, 9-(2-Cyclohexenyl)-2-n-propoxy-9H-adenine] | 0.34 mg/kg | 0.027 µg/mL (≈ 0.0988 µM) | 5.9 | 2.0 mg/kg |  |  |  | 1.2 mg/kg | 2 | 2.4 mg/kg |  |
| CC(C)COc1nc(N)c2ncn(C3CCCCC3)c2n1 [isO-C4 H9 O / drawing 30, 2-Isobutoxy-9-cyclohexyl-9H-adenine] | > 3 mg/kg | 0.31 µg/mL (≈ 1.07 µM) |  | > 3 mg/kg |  |  |  |  |  |  |  |
| CCCCOc1nc(N)c2ncn(C3CCCCC3)c2n1 [n-C4 H9 O / drawing 30, 2-n-Butoxy-9-cyclohexyl-9H-adenine] | 0.003 mg/kg | 0.025 µg/mL (≈ 0.0864 µM) | 1470 | 4.4 mg/kg |  |  |  | 1.4 mg/kg | 5.9 | 8.3 mg/kg |  |
| CCCCCOc1nc(N)c2ncn(C3CCCCC3)c2n1 [n-C5 H11 O / drawing 30, 2-n-Pentyloxy-9-cyclohexyl-9H-adenine] | > 3 mg/kg | 1.8 µg/mL (≈ 5.93 µM) |  | > 3 mg/kg |  |  |  |  |  |  |  |
| CCCCCCOc1nc(N)c2ncn(C3CCCCC3)c2n1 [n-C6 H13 O / drawing 30, 2-n-Hexyloxy-9-cyclohexyl-9H-adenine] | > 3 mg/kg | 1.4 µg/mL (≈ 4.41 µM) |  | > 3 mg/kg |  |  |  |  |  |  |  |
| CCCCCOc1nc(N)c2ncn(C3C=CCCC3)c2n1 (stereo not shown) [n-C5 H11 O / drawing 31, 9-(2-Cyclohexenyl)-2-n-pentyloxy-9H-adenine] | > 3 mg/kg | 0.59 µg/mL (≈ 1.96 µM) |  | > 3 mg/kg |  |  |  |  |  |  |  |
| CCCOc1nc(N)c2ncn(C3CCCCC3)c2n1 [n-C3 H7 O / drawing 30, 9-Cyclohexyl-2-n-propoxy-9H-adenine] | 0.37 mg/kg | 0.026 µg/mL (≈ 0.0944 µM) | 12 | 4.4 mg/kg |  |  |  | 1.2 mg/kg | 15 | 18 mg/kg |  |
| CCCCOc1nc(N)c2ncn(C3C=CCCC3)c2n1 (stereo not shown) [n-C4 H9 O / drawing 31, 9-(2-Cyclohexenyl)-2-n-butoxy-9H-adenine] | 0.65 mg/kg | 0.045 µg/mL (≈ 0.157 µM) | > 4.8 | > 3 mg/kg |  |  |  |  |  |  |  |
| Cn1c(=O)c2[nH]cnc2n(C)c1=O [Theophylline] |  |  |  |  | potent and useful non-adrenergic bronchodilator |  |  |  |  |  |  |
| CCCCCCOc1nc(N)c2ncn(C3C=CCCC3)c2n1 (stereo not shown) [n-C6 H13 O / drawing 31, 9-(2-Cyclohexenyl)-2-n-hexyloxy-9H-adenine] | > 3 mg/kg | > 3 µg/mL |  | 2.7 mg/kg |  |  |  |  |  |  |  |
| CC(C)COc1nc(N)c2ncn(C3C=CCCC3)c2n1 (stereo not shown) [iso-C4 H9 O / drawing 31, 9-(2-Cyclohexenyl)-2-isobutoxy-9H-adenine] | > 3 mg/kg | 0.41 µg/mL (≈ 1.43 µM) |  | 2.4 mg/kg |  |  |  |  |  |  |  |
| Nc1nc(Cl)nc2c1ncn2C1C=CCCC1 (stereo not shown) [Cl / drawing 31, 2-Chloro-9-(2-cyclohexenyl)-9H-adenine] | 0.15 mg/kg | 0.12 µg/mL (≈ 0.481 µM) | 17 | 2.5 mg/kg |  |  |  |  |  |  |  |
